Experimental data: patent US20250230193A1, “CYCLIC COMPOUND HAVING SELECTIVE KRAS INHIBITORY EFFECT ON HRAS AND NRAS” (CHUGAI SEIYAKU KABUSHIKI KAISHA, priority 2022, published 2025)
*1 amine or outer side, *2 acyl side, *3 side chain or, on linkers, in order; H or OH if unused. Where a SMILES comes first, the peptide text is derived from it. Bridges are numbered along the chain shown (N, C = ends). [ ]: non-standard residue; d: D form. hPhe(3,5-F2-4-CF3) = N[C@@H](CCc1cc(F)c(C(F)(F)F)c(F)c1)C(=O)O; X8 = CCCN([C@@H](Cc1ccc(OCC=[*:3])cc1)C(=O)[*:2])[*:1]; X7 = CN([C@@H](CCC=[*:3])C(=O)[*:2])[*:1]; NMeGly(cPent) = CN[C@H](C(=O)O)C1CCCC1; Hyp = O=C(O)[C@@H]1C[C@@H](O)CN1; NMeD = CN[C@@H](CC(=O)O)C(=O)O; Ac5c = NC1(C(=O)O)CCCC1; Sar = CNCC(=O)O

What was measured:
[1] = target: GDP-bound KRAS wild-type protein (Homo sapiens, UniProt P01116); assay: Binding to KRAS by surface plasmon resonance (SPR), Single Cycle Kinetics; conditions: GDP-bound KRAS wild-type protein
[2] = target: GDP-bound HRAS wild-type protein (Homo sapiens, UniProt P01112); assay: Binding to HRAS by surface plasmon resonance (SPR), Single Cycle Kinetics; conditions: KD ratio, GDP-bound HRAS wild-type vs GDP-bound KRAS wild-type, SPR
[3] = target: GDP-bound NRAS wild-type protein (Homo sapiens, UniProt P01111); assay: Binding to NRAS by surface plasmon resonance (SPR), Single Cycle Kinetics; conditions: KD ratio, GDP-bound NRAS wild-type vs GDP-bound KRAS wild-type, SPR
[4] = test system: human lung cancer strain NCI-H441

Chain of GDP-bound HRAS wild-type protein (P01112 whole entry): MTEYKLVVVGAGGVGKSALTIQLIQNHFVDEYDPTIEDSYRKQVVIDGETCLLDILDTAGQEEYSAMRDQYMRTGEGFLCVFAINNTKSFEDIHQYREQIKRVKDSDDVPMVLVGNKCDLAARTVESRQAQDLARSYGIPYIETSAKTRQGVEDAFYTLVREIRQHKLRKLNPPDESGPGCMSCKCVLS
Chain of GDP-bound NRAS wild-type protein (P01111 whole entry): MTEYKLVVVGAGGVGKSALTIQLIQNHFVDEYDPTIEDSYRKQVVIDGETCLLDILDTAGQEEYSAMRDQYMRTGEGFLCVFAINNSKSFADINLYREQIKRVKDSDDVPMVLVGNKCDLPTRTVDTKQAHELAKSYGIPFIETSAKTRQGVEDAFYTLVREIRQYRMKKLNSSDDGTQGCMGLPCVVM

SMILES | Kd ([1]; SPR Single Cycle Kinetics, 1:1 binding model) [nM] | HRAS/KRAS (ratio of KD value with respect to HRAS to KD value with respect to KRAS) [2] | Kd ([1]; SPR, Single Cycle Kinetics) [nM] | NRAS/KRAS (ratio of KD value with respect to NRAS to KD value with respect to KRAS) [3] | IC50 [4] [nM] | HRAS/KRAS (ratio of KD value for HRAS to KD value for KRAS) [2] | NRAS/KRAS (ratio of KD value for NRAS to KD value for KRAS) [3]
CC[C@H](C)[C@@H]1NC(=O)[C@H](CC(C)C)N(C)C(=O)CSC[C@@H](C(=O)N(C)C)N(C)C(=O)[C@H](C2CCCC2)N(C)C(=O)C2(CCCC2)NC(=O)[C@@H]2CCCN2C(=O)[C@H](CCc2cc(F)c(C(F)(F)F)c(F)c2)NC(=O)CN(C)C(=O)[C@H](Cc2ccc(C(F)(F)F)cc2)N2CC/C=C\C[C@@H](C2=O)N(C)C(=O)CN(C)C1=O (stereo in doubt) [PP3109] | 3000 |  |  |  |  |  | 
CCCN1C(=O)CN(C)C(=O)CN(C)C(=O)[C@H]([C@@H](C)CC)NC(=O)[C@@H]2CCCCOc3ccc(cc3)C[C@H]1C(=O)N(C)CC(=O)N[C@@H](CCc1cc(F)c(C(F)(F)F)c(F)c1)C(=O)N1C[C@H](OCC)C[C@H]1C(=O)NC1(CCCC1)C(=O)N(C)[C@@H](C1CCCC1)C(=O)N(C)[C@H](C(=O)N(C)C)CC(=O)N2C [PP0894] |  | C (A compound having a KD ratio of 0.1 or more and less than 3 is denoted as C) | 0.0088 | C (A compound having a KD ratio of 0.1 or more and less than 3 is denoted as C) |  |  | 
CCCN1C(=O)CN(C)C(=O)CN(C)C(=O)[C@H]([C@@H](C)CC)NC(=O)[C@@H]2CCC=CCOc3ccc(cc3)C[C@H]1C(=O)N(C)CC(=O)N[C@@H](CCc1cc(F)c(C(F)(F)F)c(F)c1)C(=O)N1C[C@H](OCC)C[C@H]1C(=O)NC1(CCCC1)C(=O)N(C)[C@@H](C1CCCC1)C(=O)N(C)[C@H](C(=O)N(C)C)CC(=O)N2C [PP0900] ([X7]I[Sar][Sar][X8][Sar][hPhe(3,5-F2-4-CF3)][Hyp](Et)[Ac5c][NMeGly(cPent)][NMeD]-NMe2; staple 1-5; lactam N-11) |  | C (A compound having a KD ratio of 0.1 or more and less than 3 is denoted as C) | 0.012 | C (A compound having a KD ratio of 0.1 or more and less than 3 is denoted as C) |  |  | 
CC[C@H](C)[C@@H]1NC(=O)[C@H](CC)N(C)C(=O)C[C@@H](C(=O)N(C)CC)N(C)C(=O)[C@H](C2CCCC2)N(C)C(=O)C2(CC(C)(C)C2)NC(=O)[C@@H]2C[C@H](C)CN2C(=O)[C@H](CCc2ccc(C(F)(F)F)c(OC)c2)NC(=O)CN(C)C(=O)[C@H](Cc2ccc(C)cc2)N2CC/C=C\C[C@@H](C2=O)N(C)C(=O)CN(C)C1=O [PP1868] |  |  |  |  | 10.7 | B (a compound having 3 or more and less than 10 is denoted as B) | A (a compound having 10 or more and less than 20 is denoted as A)
CCO[C@@H]1C[C@H]2C(=O)NC3(CC(C)(C)C3)C(=O)N(C)[C@@H](C3CCCC3)C(=O)N(C)[C@H](C(=O)N(C)C)CC(=O)N(C)[C@@H](CC)C(=O)N[C@@H]([C@@H](C)CC)C(=O)N(C)CC(=O)N(C)[C@H]3C/C=C\CCN(C3=O)[C@@H](Cc3ccc(C)cc3)C(=O)N(C)CC(=O)N[C@@H](CCc3ccc(C(F)(F)F)c(Cl)c3)C(=O)N2C1 [PP1878] |  |  |  |  | 8.8 | A (a compound having 10 or more and less than 20 is denoted as A) | A (a compound having 10 or more and less than 20 is denoted as A)
CC[C@H](C)[C@@H]1NC(=O)[C@H](CC(C)C)N(C)C(=O)C[C@@H](C(=O)N(C)C)N(C)C(=O)[C@H](C2CCCC2)N(C)C(=O)C2(CC(C)(C)C2)NC(=O)[C@@H]2C[C@H](C)CN2C(=O)[C@H](CCc2ccc(C(F)(F)F)c(OC)c2)NC(=O)CN(C)C(=O)[C@H](Cc2ccc(C)cc2)N2CC/C=C\C[C@@H](C2=O)N(C)C(=O)CN(C)C1=O [PP1905] |  |  |  |  | 6.7 | A (a compound having 10 or more and less than 20 is denoted as A) | A (a compound having 10 or more and less than 20 is denoted as A)
